Results taken from patent publication US9358290B2, “Pharmaceutical formulations” (MOREX DEVELOPMENT PARTNERS LLP, priority 2012, dated 2016).
Several values for one entry are separate records, joined by “and”; a condition that tells them apart may be missing. Identical values can stand only once. Marks after values point to notes of the source that are not given here.

Columns and labels:
Assay type in all cases: physicochemical
[1] = Initial solubility screening in water-miscible solvents (filtrate assayed by UV absorbance at 420.6 nm)
Method: (§1) Initial solubility screening tests were therefore carried out to determine the solubility of MTL-005 in various water-miscible solvents. The screening tests were carried out by dissolving the MTL-005 in the test solvent, filtering the resulting solution to remove any undissolved materials and assaying the filtrate by measuring the UV absorbance at 420.6 nm.

Stability studies = assay: Stability studies
[2] = Solubility in mixtures of DMA and water
Method: as §1
In order to assess the suitability of DMA solutions of MTL-005 for administration by aqueous infusion, the solubility of MTL-005 in mixtures of DMA and water was assessed using the assay method described above.

[3] = Solubility in DMA/co-solvent mixtures
Method: as §1
According to the invention, water-miscible co-solvents are added to the DMA in order to improve the solubility of the MTL-005 when the formulation is diluted with water. Tests were therefore carried out to determine the solubility of MTL-005 in various DMA/co-solvent mixtures using the methods described above.
In the first series of tests, approximately 50 mg/ml MTL-005 was added to a range of cosolvent vehicles. A solubility in the region of 50 mg/ml was obtained for a range of vehicles (see results in column 1 in Table 3 below), therefore it could not be confirmed that saturated solutions were obtained. The work was therefore repeated at a higher MTL-005 loading of 150 mg/ml (see results in column 2 of Table 3).

Copper meso-5,15-bis[3-[(1,2-dicarba-closo-dodecaboranyl)-methoxy]-phenyl]-meso-10,20-dinitroporphyrin [MTL-005]
Total MTL-005 dissolved ([1]; solvent: Absolute ethanol): 0.089 mg/mL | Total MTL-005 dissolved ([1]; solvent: Benzyl alcohol): 0.91 mg/mL | Total MTL-005 dissolved ([1]; solvent: Cremophor EL 5% aq): 0.24 mg/mL | Total MTL-005 dissolved ([1]; solvent: Cremophor EL 10% aq): 0.27 mg/mL | Total MTL-005 dissolved ([1]; solvent: Cremophor EL 10% aq(heated)): 1.65 mg/mL | Total MTL-005 dissolved ([1]; solvent: DMA 10% w/v aq): 0.13 mg/mL | Total MTL-005 dissolved ([1]; solvent: DMA 10%, Cremophor EL 5% aq): 0.30 mg/mL | Total MTL-005 dissolved ([1]; solvent: DMA diluted 1 in 10 with Solutol HS15 20% w/v aq): 1.44 mg/mL | Total MTL-005 dissolved ([1]; solvent: Deionised water): 0.001 mg/mL | Total MTL-005 dissolved ([1]; solvent: Glycofurol): 8.68 mg/mL | Total MTL-005 dissolved ([1]; solvent: Macrogol 300): 2.60 mg/mL | Total MTL-005 dissolved ([1]; solvent: N,N-Dimethylacetamide (DMA), result close to concentration in sample, solubility may be greater): 74.08* mg/ml | Total MTL-005 dissolved ([1]; solvent: Polysorbate 20 (5% w/v aq)): 0.27 mg/mL | Total MTL-005 dissolved ([1]; solvent: Polysorbate 20 (10% w/v aq)): 0.13 mg/mL | Total MTL-005 dissolved ([1]; solvent: Polysorbate 20 (20% w/v aq)): 0.13 mg/mL | Total MTL-005 dissolved ([1]; solvent: Polysorbate 20, result close to concentration in sample, solubility may be greater): 5.88* mg/ml | Total MTL-005 dissolved ([1]; solvent: Polysorbate 80 5%, Cremophor EL 5% aq): 0.28 mg/mL | Total MTL-005 dissolved ([1]; solvent: Polysorbate 80 5%, DMA 10% aq): 0.45 mg/mL | Total MTL-005 dissolved ([1]; solvent: Polysorbate 80 5%, DMA 10%, Cremophor EL 5% aq): 0.35 mg/mL | Total MTL-005 dissolved ([1]; solvent: Polysorbate 80 (5% w/v aq)): 0.15 mg/mL and 0.22 mg/mL | Total MTL-005 dissolved ([1]; solvent: Polysorbate 80 (10% w/v aq)): 0.25 mg/mL | Total MTL-005 dissolved ([1]; solvent: Polysorbate 80 (20% w/v aq)): 0.38 mg/mL | Total MTL-005 dissolved ([1]; solvent: Propylene glycol): 0.019 mg/mL | Total MTL-005 dissolved ([1]; solvent: Solutol HS15): 11.50 mg/mL | Total MTL-005 dissolved ([1]; solvent: Solutol HS15 (5% w/v aq)): 0.08 mg/mL | Total MTL-005 dissolved ([1]; solvent: Solutol HS15 (10% w/v aq)): 0.10 mg/mL | Total MTL-005 dissolved ([1]; solvent: Solutol HS15 (20% w/v aq)): 0.16 mg/mL | Total MTL-005 dissolved ([1]; solvent: Soyabean oil): 0.59 mg/mL | Total MTL-005 dissolved ([1]; solvent: pH 7 Britton Robinson buffer): 0.0016 mg/mL | Stability as a dry powder (Stability studies; dry powder): relatively stable as a dry powder | Stability in solution (Stability studies; in solution): not stable for extended periods in solution | Solubility ([2]; vehicle: 20% DMA/80% Water, 5 mg/ml added): <50 µg/mL | Solubility ([2]; vehicle: 40% DMA/60% Water, 5 mg/ml added): <50 µg/mL | Solubility ([2]; vehicle: 60% DMA/40% Water, 20 mg/ml added): <50 µg/mL | Solubility ([2]; vehicle: 80% DMA/20% Water, 18 mg/ml added): <50 µg/mL | Solubility ([2]; vehicle: 100% DMA, 92.5 mg/ml added): >90000 µg/mL | Total MTL-005 dissolved (50 mg/ml added) ([3]; DMA 60%, Macrogol 300 40%): 34 mg/mL | Total MTL-005 dissolved (50 mg/ml added) ([3]; DMA 60%, Propylene Glycol 40%): 4 mg/mL | Total MTL-005 dissolved (50 mg/ml added) ([3]; DMA 60%, Solutol HS 40%, may not be saturated): 51 mg/mL | Total MTL-005 dissolved (150 mg/ml added) ([3]; DMA 60%, Solutol HS 40%): 58 mg/mL | Total MTL-005 dissolved (50 mg/ml added) ([3]; DMA 60%, Tetraglycol 40%, may not be saturated): 53 mg/mL | Total MTL-005 dissolved (150 mg/ml added) ([3]; DMA 60%, Tetraglycol 40%): 94 mg/mL | Total MTL-005 dissolved (50 mg/ml added) ([3]; DMA 60%, Tween 20 40%, may not be saturated): 47 mg/mL | Total MTL-005 dissolved (150 mg/ml added) ([3]; DMA 60%, Tween 20 40%): 37 mg/mL | Total MTL-005 dissolved (150 mg/ml added) ([3]; DMA 70%, Solutol HS 20%, Macrogol 300 10%): 74 mg/mL | Total MTL-005 dissolved (150 mg/ml added) ([3]; DMA 70%, Solutol HS 30%): 70 mg/mL | Total MTL-005 dissolved (50 mg/ml added) ([3]; DMA 80%, Macrogol 300 10%, Propylene Glycol 10%, may not be saturated): 48 mg/mL | Total MTL-005 dissolved (50 mg/ml added) ([3]; DMA 80%, Macrogol 300 10%, Tetraglycol 10%, may not be saturated): 49 mg/mL | Total MTL-005 dissolved (50 mg/ml added) ([3]; DMA 80%, Macrogol 300 20%, may not be saturated): 50 mg/mL | Total MTL-005 dissolved (150 mg/ml added) ([3]; DMA 80%, Macrogol 300 20%): 76 mg/mL | Total MTL-005 dissolved (50 mg/ml added) ([3]; DMA 80%, Propylene Glycol 20%): 27 mg/mL | Total MTL-005 dissolved (50 mg/ml added) ([3]; DMA 80%, Solutol HS 10%, Macrogol 300 10%, may not be saturated): 49 mg/mL | Total MTL-005 dissolved (150 mg/ml added) ([3]; DMA 80%, Solutol HS 10%, Macrogol 300 10%): 95 mg/mL | Total MTL-005 dissolved (50 mg/ml added) ([3]; DMA 80%, Solutol HS 10%, Propylene Glycol 10%, may not be saturated): 50 mg/mL | Total MTL-005 dissolved (150 mg/ml added) ([3]; DMA 80%, Solutol HS 10%, Propylene Glycol 10%): 58 mg/mL | Total MTL-005 dissolved (50 mg/ml added) ([3]; DMA 80%, Solutol HS 10%, Tetraglycol 10%, may not be saturated): 49 mg/mL | Total MTL-005 dissolved (150 mg/ml added) ([3]; DMA 80%, Solutol HS 10%, Tetraglycol 10%): 113 mg/mL | Total MTL-005 dissolved (50 mg/ml added) ([3]; DMA 80%, Solutol HS 20%, may not be saturated): 49 mg/mL | Total MTL-005 dissolved (150 mg/ml added) ([3]; DMA 80%, Solutol HS 20%): 115 mg/mL | Total MTL-005 dissolved (50 mg/ml added) ([3]; DMA 80%, Tetraglycol 10%, Propylene Glycol 10%, may not be saturated): 50 mg/mL | Total MTL-005 dissolved (50 mg/ml added) ([3]; DMA 80%, Tetraglycol 20%, may not be saturated): 52 mg/mL | Total MTL-005 dissolved (150 mg/ml added) ([3]; DMA 80%, Tetraglycol 20%): 131 mg/mL | Total MTL-005 dissolved (50 mg/ml added) ([3]; DMA 80%, Tween 20 10%, Macrogol 300 10%, may not be saturated): 50 mg/mL | Total MTL-005 dissolved (150 mg/ml added) ([3]; DMA 80%, Tween 20 10%, Macrogol 300 10%): 83 mg/mL | Total MTL-005 dissolved (50 mg/ml added) ([3]; DMA 80%, Tween 20 10%, Propylene Glycol 10%, may not be saturated): 49 mg/mL | Total MTL-005 dissolved (150 mg/ml added) ([3]; DMA 80%, Tween 20 10%, Propylene Glycol 10%): 79 mg/mL | Total MTL-005 dissolved (50 mg/ml added) ([3]; DMA 80%, Tween 20 10%, Solutol HS 10%, may not be saturated): 52 mg/mL | Total MTL-005 dissolved (50 mg/ml added) ([3]; DMA 80%, Tween 20 10%, Tetraglycol 10%, may not be saturated): 48 mg/mL | Total MTL-005 dissolved (150 mg/ml added) ([3]; DMA 80%, Tween 20 10%, Tetraglycol 10%): 101 mg/mL | Total MTL-005 dissolved (50 mg/ml added) ([3]; DMA 80%, Tween 20 20%, may not be saturated): 51 mg/mL | Total MTL-005 dissolved (150 mg/ml added) ([3]; DMA 80%, Tween 20 20%): 91 mg/mL
